Where “and” joins values, the source holds several entries; their conditions need not be identical. Equal values may be shown once. Bounds are passed on as bounds.

Data set [1] can be described thus: Bi-directional Caco-2 cell permeability. In kind it is in vitro ADME. The conditions noted are these: human, Caco-2. On the procedure:
(§1) Caco-2 cell permeability was assessed to predict the oral absorption of SPN. Cell culture and transport studies were performed as previously described. Briefly, for the bi-directional transport studies, the cells were seeded at a density of 1 × 10^5 cells/well, and the cell medium was replaced until they formed confluent monolayers. On the 25th day, the cell monolayers were washed with pre-warmed HBSS buffer. […] Before the experiment, the integrity of the cell monolayers was evaluated by measuring the transepithelial electrical resistance using a Millicell ohmmeter. After 2 h incubation at 37 °C, samples were withdrawn from both sides, respectively. All samples were stored at −80 °C until LC-MS/MS analysis, and all experiments were performed in triplicate.
(§2) The apparent permeability coefficient (Papp) was calculated using the following equation. Papp = (Vr/C0) × (1/A) × ([Drug]/t) where, Vr is the volume of medium in the receiver chamber, C0 is the donor compartment concentration at time zero, A is the area of the cell monolayer, t is the treatment time of the drug, and [Drug] is the drug concentration in the receiver chamber.
(Caco-2 monolayers are a common model of the intestinal barrier.)

Data set [2] concerns Caco-2 cells. Nature of the data set: Bi-directional Caco-2 cell permeability. The format is in vitro ADME. As for the experimental part:
as §1, §2

Data set [3] is described as follows: Effects of SPN on the pharmacokinetics of diclofenac in rats. The following applies: rats.
Protocol: The carotid arteries of each rat were cannulated with a polyethylene tube (Clay Adams, Franklin Lakes, NJ, USA) for blood sampling. Each rat was individually housed in a rat metabolic cage and allowed to recover from anesthesia for 4–5 h prior to the start of the experiment. […] SPN was suspended in dimethylsulfoxide:PEG400:distilled water (5:60:35, v/v/v) and administered by oral gavage at a dose of 75 mg/kg in a volume of 5 mL/kg. […] The blood samples were immediately centrifuged at 13,000× g for 5 min at 4 °C. The plasma samples were divided into two Eppendorf tubes by 50 μL and stored at −80 °C until LC-MS/MS analysis.
Briefly, 50 μL aliquots of plasma were extracted with 300 μL aliquots of acetonitrile containing chlorpropamide (internal standard), followed by LC-MS/MS (Shimadzu Corporation). Chromatographic separation was performed on a Phenomenex Luna C18 column (100 × 2.00 mm; 3.0 μm). The isocratic mobile phase consisted of 0.1% formic acid in distilled water (A) and 0.1% formic acid in acetonitrile (B) (45:55, v/v), with a flow rate of 0.3 mL/min. […] The data acquisition was computed using LabSolutions LCMS Ver.5.6 (Shimadzu Corporation).
Pharmacokinetic parameters were calculated by a non-compartmental analysis using WinNonlin Professional software (version 5.2, Pharsight Corp., Mountain View, CA, USA) that used the total area under the plasma concentration–time curve from time zero to infinity (AUC∞) or the last measured time (AUCt). The logarithmic trapezoidal rule was used during the declining plasma level phase and the linear trapezoidal rule was used for the rising plasma-level phase. The peak plasma concentration (Cmax) and time to reach Cmax (Tmax) were read directly from the experimental data. Statistically significant differences were recognized at p < 0.05.
Data set [4] deals with T1, CYP2D6 (Homo sapiens, UniProt P10635).
T1 construct: tissue Corning Life Sciences; host or cells: pooled human liver microsomes, 150 donors
Briefly: Reversible CYP2D6 inhibition, cocktail assay (dextromethorphan O-demethylase) in human liver microsomes. The format is biochemical. On the procedure:
The inhibitory effects of SPN on CYP1A2, CYP2A6, CYP2B6, CYP2C8, CYP2C9, CYP2C19, CYP2D6, CYP2E1, and CYP3A4 were evaluated in pooled human liver microsomes through the use of specific CYP probe substrates (cocktail assay), as previously described with a slight modification. Concentrations of each CYP probe in Table 1 were used close to their reported Km values.
Briefly, a 90-µL incubation mixture, including pooled human liver microsomes (final concentration 0.1 mg/mL), 50 mM phosphate buffer (pH 7.4), each CYP-probe substrate cocktail set, and SPN (0–50 μM), was pre-incubated for 5 min at 37 °C. SPN was dissolved in methanol and spiked into the incubation mixture to a final concentration of 0.5% methanol. […]
The IC50 values were calculated via nonlinear least-squares regression analysis from logarithmic plots of inhibitor concentration versus percentage of activity remaining after inhibition, using SigmaPlot (ver. 14.0; Systat Software Inc, Chicago, IL, USA). The Ki values were determined from the equations for a single substrate single inhibitor model and the software available in the SigmaPlot Enzyme Kinetics module. Competitive, non-competitive, uncompetitive, or mixed inhibition models were evaluated and ranked according to the best fit based on Akaike Information Criterion (AIC) values. […]
(Liver microsomes are vesicles of endoplasmic reticulum, rich in cytochrome P450 enzymes.)

Data set [5] is described as follows: Unbound fraction in human liver microsomes (rapid equilibrium dialysis). The following applies: microsomal protein 0.1 mg/mL, n = 3. The format is in vitro ADME. As for the experimental part: The human liver microsomal incubation mixtures (final concentration 0.1 mg/mL) without NADPH generating system were used to determine the unbound fraction of SPN. Other procedures were similar to those of plasma protein binding assay.

T1 sequence (P10635 whole entry): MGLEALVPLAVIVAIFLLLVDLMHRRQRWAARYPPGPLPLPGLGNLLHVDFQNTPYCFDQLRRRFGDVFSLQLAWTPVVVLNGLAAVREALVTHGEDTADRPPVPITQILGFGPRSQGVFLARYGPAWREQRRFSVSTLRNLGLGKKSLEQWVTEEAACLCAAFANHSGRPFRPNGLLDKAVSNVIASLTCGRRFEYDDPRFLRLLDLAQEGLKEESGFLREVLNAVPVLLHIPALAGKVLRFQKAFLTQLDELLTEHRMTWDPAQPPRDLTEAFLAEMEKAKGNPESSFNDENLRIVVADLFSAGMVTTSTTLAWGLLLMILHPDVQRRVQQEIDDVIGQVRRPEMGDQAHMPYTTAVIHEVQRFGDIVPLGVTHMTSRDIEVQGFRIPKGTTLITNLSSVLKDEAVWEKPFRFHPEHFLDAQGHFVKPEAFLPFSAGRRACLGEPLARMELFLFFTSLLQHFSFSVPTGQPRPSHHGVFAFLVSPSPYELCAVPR

A word on the Papp A→B: it is how fast a substance crosses the layer from the apical side. Read a high Papp A→B as ready permeation. By Papp B→A is commonly meant the apparent permeability from the basolateral to the apical side of a cell layer. The term IC50 denotes the concentration needed to halve the response being measured. Read a high IC50 as weaker potency. The term fraction unbound denotes the share of the substance not bound to proteins or other matrix. A higher fraction unbound goes with much free substance. In data set [1] (10 μM, 2 h, n = 3), `CC(C)=CCc1cc([C@@H]2CC(=O)c3ccc(O)c(CC=C(C)C)c3O2)cc(CC=C(C)C)c1O` [SPN, (‒)-Sophoranone] had a Papp A→B at 2 h, 10 µM of 0.115 ± 0.0369 ×10⁻⁶ cm/s and a Papp B→A at 2 h, 10 µM of 0.101 ± 0.00444 ×10⁻⁶ cm/s. Moreover, in data set [1] (50 μM, 2 h, n = 3), the apparent permeability from apical to basolateral (Papp A→B) at 2 h, 50 µM was 0.172 ± 0.0488 ×10⁻⁶ cm/s and the Papp B→A at 2 h, 50 µM was 0.152 ± 0.0353 ×10⁻⁶ cm/s. For the same compound, the efflux ratio at 2 h in data set [1] (not a substrate for P-gp and BCRP, read-out: efflux ratio (B-to-A/A-to-B)) is below 2. Moreover, the “Papp A-to-B as % of propranolol Papp” value in data set [2] (10 μM) is 0.429%. Besides, in data set [2] (50 μM), the “Papp A-to-B as % of propranolol Papp” value is 0.642%. Moreover, in data set [3] (male, Sprague-Dawley, rat, plasma, po, Cmax of SPN, oral SPN 75 mg/kg co-administered with diclofenac 2 mg/kg, n = 6), the Cmax was 33.7 ng/mL and 73.2 nM. In addition, the “effect of co-administration on the pharmacokinetics of diclofenac and 4′-hydroxydiclofenac” value in data set [3] (oral SPN 75 mg/kg 15 min before oral diclofenac 2 mg/kg) was “did not alter the pharmacokinetics of diclofenac and 4′-hydroxydiclofenac”. In addition, the “Imax,u (unbound maximum concentration in plasma)” value in data set [3] (oral SPN 75 mg/kg, Cmax corrected for plasma protein binding) is 0.0420 ± 0.0184 nM. In addition, in data set [4] (at the highest tested concentration (50 μM)), the “residual enzyme activity, CYP2D6” value turned out to be 53.9 ± 3.53%. In addition, the IC50 in data set [4] (human liver microsomes 0.1 mg/mL, cocktail assay, dextromethorphan probe, n = 3) was above 50 µM. This compound registered a free fraction (fraction unbound) at 4 h, 10 µM in data set [5] (10 μM) of 0.00621 ± 0.000405. For the same compound, the fraction unbound at 4 h, 50 µM in data set [5] (50 μM) was 0.00724 ± 0.0017.

(Values after paper PMC7238241, “Lack of Correlation between In Vitro and In Vivo Studies on the Inhibitory Effects of (‒)-Sophoranone on CYP2C9 Is Attributable to Low Oral Absorption and Extensive Plasma Protein Binding of (‒)-Sophoranone” (Pharmaceutics, 2020).)
